The nature of series [1]: Moisture absorption as a function of relative humidity. Type of series: physicochemical. To be noted: for moisture absorption behaviour compared with the other samples: RH ramp 0 to 80 % and back down to 20 %. On the procedure:
Sucralose beads prepared from seeded and unseeded aqueous sucralose solutions using the liquid nitrogen technique described above were evaluated to determine degree of moisture absorption as a function of relative humidity (% RH). A sample of commercial sucralose needles (“neat” sucralose) was also evaluated in parallel, and the results for these runs are shown in Table 1. Each column represents a ramping up of % RH from zero to 80, followed by ramping back down to 20.

Series [2] can be described thus: Thermogravimetric analysis, stability at high temperature. Type of series: physicochemical. To be noted: mass as a function of time at 90° C. in nitrogen. Here is the method: Thermogravimetric analysis was performed on commercial, seeded and unseeded samples made as described above in order to assess stability of the products at high temperature. The results are shown in FIGS. 4, 5 and 6, respectively. In each case, the mass of a sample was followed as a function of time at 90° C. in nitrogen, recorded as percent of original mass remaining. The vertical lines represent the point of the mass curve representing the halfway point of mass loss, and thus may be used as a measure of how rapidly decomposition set in. […] This further bears out the fact, noted above in view of the moisture absorption results, that these samples represent three different forms of sucralose.

Take `OCC1O[C@@H](O[C@]2(CCl)O[C@@H](CCl)C(O)C2O)C(O)C(O)[C@H]1Cl` (stereo partly drawn) [Neat, 4,1′,6′-trichloro-4,1′,6′-trideoxygalactosucrose, reference compound]: the “Mass Increase (%)” value came to 0.00% in series [1] (0 % RH, start of upward ramp); 0.00% in series [1] (20 % RH, ramping back down); 0.00% in series [1] (20 % RH, ramping up); 0.00% in series [1] (30 % RH, ramping back down); 0.00% in series [1] (30 % RH, ramping up); 0.00% in series [1] (40 % RH, ramping back down). In addition, the “Mass Increase (%)” value in series [1] (40 % RH, ramping up) was found to be 0.00%; in series [1] (50 % RH, ramping back down), 0.00%; in series [1] (50 % RH, ramping up) it was 0.00%; in series [1] (60 % RH, ramping back down) it was 0.00%; in series [1] (60 % RH, ramping up) it was 0.00%; in series [1] (70 % RH, ramping back down) it was 0.00%. In addition, the “Mass Increase (%)” value is given as 0.00% in series [1] (70 % RH, ramping up); 0.10% in series [1] (80 % RH, top of ramp); 0.1% in series [1] (80 % RH, top of ramp, listed as neat (commercial) product). Moreover, in series [2] (listed as commercial sample), the “onset of decomposition (halfway point of mass loss)” value is “earliest to show significant decomposition”.
Regarding `OCC1O[C@@H](O[C@]2(CCl)O[C@@H](CCl)C(O)C2O)C(O)C(O)[C@H]1Cl` (stereo partly drawn) [Seeded, 4,1′,6′-trichloro-4,1′,6′-trideoxygalactosucrose], the “Mass Increase (%)” value is on record as 0% in series [1] (0 % RH, start of upward ramp); 0.02% in series [1] (20 % RH, ramping back down); 0.01% in series [1] (20 % RH, ramping up); 0.02% in series [1] (30 % RH, ramping back down); 0.02% in series [1] (30 % RH, ramping up); 0.02% in series [1] (40 % RH, ramping back down). Also, the “Mass Increase (%)” value in series [1] (40 % RH, ramping up) is on record as 0.02%; in series [1] (50 % RH, ramping back down), 0.03%; in series [1] (50 % RH, ramping up) it was 0.02%; in series [1] (60 % RH, ramping back down), 0.03%; in series [1] (60 % RH, ramping up) it was 0.03%; in series [1] (70 % RH, ramping back down), 0.04%. For the same molecule, the “Mass Increase (%)” value stood at 0.03% in series [1] (70 % RH, ramping up) and 0.04% in series [1] (80 % RH, top of ramp). Further, the “moisture absorption behaviour compared with the other samples” value in series [1] (listed as seeded product) is “maximum value was less than half of that seen with the commercial product”. Besides, the “onset of decomposition (halfway point of mass loss)” value in series [2] (listed as seeded product) was “took considerably longer”.
In the case of `OCC1O[C@@H](O[C@]2(CCl)O[C@@H](CCl)C(O)C2O)C(O)C(O)[C@H]1Cl` (stereo in doubt) [Not Seeded, 4,1′,6′-trichloro-4,1′,6′-trideoxygalactosucrose], the “Mass Increase (%)” value in series [1] (0 % RH, start of upward ramp) was determined as 0.00%; in series [1] (20 % RH, ramping back down) it was 0.60%; in series [1] (20 % RH, ramping up), 1.09%; in series [1] (30 % RH, ramping back down), 0.81%; in series [1] (30 % RH, ramping up), 2.21%; in series [1] (40 % RH, ramping back down) it was 1.15%. Besides, the “Mass Increase (%)” value in series [1] (40 % RH, ramping up) amounted to 3.41%; in series [1] (50 % RH, ramping back down), 2.01%; in series [1] (50 % RH, ramping up) it was 4.91%; in series [1] (60 % RH, ramping back down) it was 2.91%; in series [1] (60 % RH, ramping up) it was 6.21%; in series [1] (70 % RH, ramping back down), 4.11%. For the same molecule, the “Mass Increase (%)” value is recorded as 6.71% in series [1] (70 % RH, ramping up) and 7.11% in series [1] (80 % RH, top of ramp). For the same molecule, the “moisture absorption behaviour compared with the other samples” value in series [1] (listed as unseeded product) is on record as “significantly higher moisture absorption”. In addition, the “onset of decomposition (halfway point of mass loss)” value in series [2] (listed as unseeded product) was “intermediate between the two”.

These data come from patent US20090130273A1, “FREEZE DRIED SUCRALOSE” (TATE & LYLE TECHNOLOGY LIMITED, priority 2007, published 2009).
